Reference: ChEMBL document CHEMBL4610120, “New Broad-Spectrum Antibiotics Containing a Pyrrolobenzodiazepine Ring with Activity against Multidrug-Resistant Gram-Negative Bacteria” (J Med Chem, 2020)
≈ marks a conversion by molar mass, not a printed value. Calls of active or inactive are those of the source. The rule behind the calls is not given here.

Assays:
[1] = target: T1, DNA repair protein RecN (Escherichia coli) (UniProt P05824); test: Induction of Escherichia coli K12 MG1655 recN promotor measured at 30 mins interval for 20 hrs by fluorescence assay relative to control; details: Escherichia coli str. K-12 substr. MG1655
T1 sequence (whole entry): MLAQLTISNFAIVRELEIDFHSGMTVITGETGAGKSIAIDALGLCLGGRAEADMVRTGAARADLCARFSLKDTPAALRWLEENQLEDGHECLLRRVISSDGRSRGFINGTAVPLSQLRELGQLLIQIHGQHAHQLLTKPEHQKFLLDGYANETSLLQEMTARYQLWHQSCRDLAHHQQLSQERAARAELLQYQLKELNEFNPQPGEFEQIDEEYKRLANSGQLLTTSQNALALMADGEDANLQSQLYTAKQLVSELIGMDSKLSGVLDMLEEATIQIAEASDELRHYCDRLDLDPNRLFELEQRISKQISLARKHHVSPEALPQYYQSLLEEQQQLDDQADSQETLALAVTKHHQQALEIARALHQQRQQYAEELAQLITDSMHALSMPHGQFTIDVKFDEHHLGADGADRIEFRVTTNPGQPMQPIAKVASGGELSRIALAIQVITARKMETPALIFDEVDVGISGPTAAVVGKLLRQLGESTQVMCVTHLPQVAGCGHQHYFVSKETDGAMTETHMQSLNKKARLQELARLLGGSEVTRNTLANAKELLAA

[2] = target: T2, LexA repressor (Escherichia coli) (UniProt P0A7C2); test: Induction of Escherichia coli K12 MG1655 lexA promotor measured at 30 mins interval for 20 hrs by fluorescence assay relative to control; details: Escherichia coli str. K-12 substr. MG1655
T2 sequence (whole entry): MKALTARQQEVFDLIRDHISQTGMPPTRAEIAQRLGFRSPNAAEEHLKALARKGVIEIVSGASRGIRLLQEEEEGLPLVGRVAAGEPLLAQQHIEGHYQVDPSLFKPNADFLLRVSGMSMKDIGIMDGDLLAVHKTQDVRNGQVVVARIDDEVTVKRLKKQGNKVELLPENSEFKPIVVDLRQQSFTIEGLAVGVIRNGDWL

[3] = target: T3, Cell division inhibitor SulA (Escherichia coli K-12) (UniProt P0AFZ5); test: Induction of Escherichia coli K12 MG1655 sulA promotor measured at 30 mins interval for 20 hrs by fluorescence assay relative to control; details: Escherichia coli str. K-12 substr. MG1655
T3 sequence (whole entry): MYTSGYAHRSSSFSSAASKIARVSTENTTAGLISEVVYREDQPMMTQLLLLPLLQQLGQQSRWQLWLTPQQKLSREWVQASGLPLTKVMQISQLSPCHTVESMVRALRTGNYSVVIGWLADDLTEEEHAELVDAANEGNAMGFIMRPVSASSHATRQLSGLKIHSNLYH

[4] = target: T4, Protein RecA (Escherichia coli K-12) (UniProt P0A7G6); test: Induction of Escherichia coli K12 MG1655 recA promotor measured at 30 mins interval for 20 hrs by fluorescence assay relative to control; details: Escherichia coli str. K-12 substr. MG1655
T4 sequence (whole entry): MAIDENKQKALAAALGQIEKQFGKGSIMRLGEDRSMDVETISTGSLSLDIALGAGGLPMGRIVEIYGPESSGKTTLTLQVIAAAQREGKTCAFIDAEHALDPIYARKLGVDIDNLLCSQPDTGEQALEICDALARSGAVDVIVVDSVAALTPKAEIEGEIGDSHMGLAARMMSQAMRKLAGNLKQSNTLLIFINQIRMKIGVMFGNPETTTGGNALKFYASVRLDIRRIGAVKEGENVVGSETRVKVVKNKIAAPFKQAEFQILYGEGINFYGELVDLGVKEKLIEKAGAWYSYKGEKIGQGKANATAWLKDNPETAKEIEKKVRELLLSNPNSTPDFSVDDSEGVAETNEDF

[5] = Selectivity ratio of cytotoxicity against human WI38 cells to MIC for Klebsiella pneumoniae M6; assay type: toxicity, cell-based
[6] = Selectivity ratio of cytotoxicity against human WI38 cells to MIC for Pseudomonas aeruginosa PAO1; assay type: toxicity, cell-based
[7] = Selectivity ratio of cytotoxicity against human WI38 cells to MIC for vancomycin sensitive Enterococcus faecalis NCTC 775; assay type: toxicity, cell-based
[8] = Selectivity ratio of cytotoxicity against human WI38 cells to MIC for vancomycin resistant Enterococcus faecium NCTC 12204; assay type: toxicity, cell-based
Staphylococcus aureus [9] = test: Antibacterial activity against methicillin resistant Staphylococcus aureus NCTC 13277 by microdilution broth method; assay type: functional
[10] = Selectivity ratio of cytotoxicity against human WI38 cells to MIC for methicillin sensitive Staphylococcus aureus NCTC 6571; assay type: toxicity, cell-based
Enterococcus faecium = test: Antibacterial activity against vancomycin resistant Enterococcus faecium NCTC 12204 by microdilution broth method; assay type: functional
DNA [11] = test: Stabilization of 5'-FAM-TAT-ATA-TAG-ATA-TTT-TTT-TAT-CTA-TAT-ATA-3'-TAMRA DNA (unknown origin) assessed as reduction in change in melting temperature at 1:1 to 5:1 ligand to DNA ratio measured after 3 hrs by FRET-based assay relative to control; assay type: ADME, nucleic-acid assay
DNA [12] = test: Stabilization of 5'-FAM-TAT-AGA-TAT-AGA-TAT-TTT-ATA-TCT-ATA-TCT-ATA-3'-TAMRA DNA (unknown origin) assessed as reduction in change in melting temperature at 1:1 to 5:1 ligand to DNA ratio measured after 3 hrs by FRET-based assay relative to control; assay type: ADME, nucleic-acid assay
Acinetobacter baumannii [13] = test: Antimicrobial activity against Acinetobacter baumannii ATCC 17978 by microdilution broth method; assay type: functional
[14] = Selectivity ratio of cytotoxicity against human WI38 cells to MIC for multidrug-resistant Klebsiella pneumoniae NCTC 13368; assay type: toxicity, cell-based
[15] = Selectivity ratio of cytotoxicity against human WI38 cells to MIC for multidrug-resistant Acinetobacter baumannii AYE; assay type: toxicity, cell-based
Staphylococcus aureus [16] = test: Antibacterial activity against methicillin resistant Staphylococcus aureus NCTC 13616 by microdilution broth method; assay type: functional
[17] = Cytotoxicity against human WI38 cells assessed as cell viability at 20 uM measured after 24 hrs by MTT assay relative to control; assay type: cell-based, WI-38; details: read-out: Activity
[18] = Selectivity ratio of cytotoxicity against human WI38 cells to MIC for Acinetobacter baumannii ATCC 17978; assay type: toxicity, cell-based
[19] = Selectivity ratio of cytotoxicity against human WI38 cells to MIC for methicillin resistant Staphylococcus aureus NCTC 13616; assay type: toxicity, cell-based
[20] = Selectivity ratio of cytotoxicity against human WI38 cells to MIC for methicillin resistant Staphylococcus aureus NCTC 13277; assay type: toxicity, cell-based
[21] = Selectivity ratio of cytotoxicity against human WI38 cells to MIC for multidrug-resistant Pseudomonas aeruginosa NCTC 13437; assay type: toxicity, cell-based
Enterococcus faecalis [22] = test: Antibacterial activity against vancomycin resistant Enterococcus faecalis NCTC 12201 by microdilution broth method; assay type: functional
Acinetobacter baumannii [23] = test: Antimicrobial activity against multidrug-resistant Acinetobacter baumannii AYE by microdilution broth method; assay type: functional
[24] = Selectivity ratio of cytotoxicity against human WI38 cells to MIC for vancomycin resistant Enterococcus faecalis NCTC 12201; assay type: toxicity, cell-based
Enterococcus faecalis [25] = test: Antibacterial activity against vancomycin sensitive Enterococcus faecalis NCTC 775 by microdilution broth method; assay type: functional
Staphylococcus aureus [26] = test: Antibacterial activity against methicillin sensitive Staphylococcus aureus NCTC 6571 by microdilution broth method; assay type: functional
Pseudomonas aeruginosa = test: Antimicrobial activity against Pseudomonas aeruginosa PAO1 by microdilution broth method; assay type: functional

SMILES | selectivity ratio [5] | selectivity ratio [6] | selectivity ratio [7] | selectivity ratio [8] | MIC (Staphylococcus aureus [9]) [µg/mL] | selectivity ratio [10] | MIC (Enterococcus faecium) [µg/mL] | fold change (FC) (DNA [11]) | fold change (FC) (DNA [12]) | MIC (Acinetobacter baumannii [13]) [µg/mL] | selectivity ratio [14] | selectivity ratio [15] | MIC (Staphylococcus aureus [16]) [µg/mL] | viability at 24 h, 20 µM [17] [%] | selectivity ratio [18] | selectivity ratio [19] | selectivity ratio [20] | selectivity ratio [21] | MIC (Enterococcus faecalis [22]) [µg/mL] | MIC (Acinetobacter baumannii [23]) [µg/mL] | also measured
CO[C@H]1/C=C/O[C@@]2(C)Oc3c(C)c(O)c4c(O)c(c(/C=N/N5CCN(C)CC5)c(O)c4c3C2=O)NC(=O)/C(C)=C\C=C\[C@H](C)[C@H](O)[C@@H](C)[C@@H](O)[C@@H](C)[C@H](OC(C)=O)[C@@H]1C |  |  |  |  |  |  |  |  |  |  |  |  |  |  |  |  |  |  |  |  | Activity [1]: inactive; Activity [2]: inactive; Activity [3]: inactive; Activity [4]: inactive
CCN(CC)C(=O)c1cc2cc(NC(=O)c3cc(NC(=O)CCCOc4cc5c(cc4OC)C(=O)N4CCC[C@H]4C=N5)cn3C)ccc2s1 | 10 | 10 | 100 | 100 | 1 (≈ 1.46 µM) | 100 | 1 (≈ 1.46 µM) | 3 to 4 | 3 to 4 | 2 (≈ 2.92 µM) | 10 | 10 | 1 (≈ 1.46 µM) | > 85 | 10 | 100 | 100 | 10 | 0.5 (≈ 0.73 µM) | 2 (≈ 2.92 µM) | selectivity ratio [24]: 100
COC(=O)c1cc(NC(=O)c2cc3cc(NC(=O)c4cc(NC(=O)CCCOc5cc6c(cc5OC)C(=O)N5CCC[C@H]5C=N6)cn4C)ccc3s2)cn1C |  |  |  |  | 1 (≈ 1.31 µM) |  | ≤ 0.125 | 3 to 4 | 3 to 4 | 64 (≈ 83.6 µM) |  |  | 0.5 (≈ 0.653 µM) | 32 |  |  |  |  | ≤ 0.125 | 64 (≈ 83.6 µM) | MIC (Enterococcus faecalis [25]): ≤ 0.125 µg/mL; MIC (Staphylococcus aureus [26]): ≤ 0.125 µg/mL; MIC (Pseudomonas aeruginosa): > 128 µg/mL
CCn1cc(C(=O)O)c(=O)c2cc(F)c(N3CCNCC3)cc21 |  |  |  |  |  |  |  |  |  |  |  |  |  |  |  |  |  |  |  |  | fold change (FC) [1]: 14 to 32; fold change (FC) [2]: 5 to 13; fold change (FC) [3]: 17 to 41; fold change (FC) [4]: 20 to 35
COc1cc2c(cc1OCCCC(=O)Nc1cc(C(=O)Nc3ccc4sc(C(=O)N5CCCCC5)cc4c3)n(C)c1)N=C[C@@H]1CCCN1C2=O | 10 | 10 | 100 | 100 | 1 (≈ 1.44 µM) | 100 | ≤ 0.125 | 3 to 4 | 3 to 4 | 8 (≈ 11.5 µM) | 10 | 10 | 0.5 (≈ 0.718 µM) | > 85 | 10 | 100 | 100 | 10 | ≤ 0.125 |  | MIC (Staphylococcus aureus [26]): ≤ 0.125 µg/mL; selectivity ratio [24]: 100
